Laboratory results reported in ChEMBL document CHEMBL4842362, “From virtual screening hits targeting a cryptic pocket in BACE-1 to a nontoxic brain permeable multitarget anti-Alzheimer lead with disease-modifying and cognition-enhancing effects” (Eur J Med Chem, 2021).
≈ marks a conversion by molar mass, not a printed value. Where “and” joins values, the source holds several entries; their conditions need not be identical. Equal values may be shown once. Calls of active or inactive are those of the source. The calls are words filed in the database; no cut-off is given here.

How the values were obtained:
HT-22 [1] = assay: Neuroprotective activity against glutamate induced neuronal death in mouse HT-22 cells assessed as increase in cell viability at 1 to 25 uM by MTT assay; assay type: functional, cell-based; conditions: dose 1-25 µM
[2] = Metal chelating activity assessed as compound-Cu2+ complex formation at 3 mM in presence of CuSO4 by UV-Vis spectra analysis
Cholinesterase [3] = biological target: T1, Cholinesterase (Homo sapiens, UniProt P06276)
Description: Inhibition of human serum BChE using butyrylthiocholine iodide as a substrate preincubated for 20 mins followed by substrate addition by spectrophotometric analysis

Cholinesterase [4] = biological target: T1, Cholinesterase; assay: Potency index, ratio of rhein-huprine hybrid IC50 to test compound IC50 for inhibition of human serum BChE using butyrylthiocholine iodide as a substrate preincubated for 20 mins followed by substrate addition by spectrophotometric analysis; assay type: cell-free
[5] = Permeability of the compound in PBS/EtOH by PAMPA-BBB assay; assay type: ADME; conditions: read-out: permeability
[6] = biological target: Microtubule-associated protein tau (Homo sapiens) (UniProt P10636); assay: Inhibition of tau aggregation (unknown origin) in Escherichia coli BL21 (DE3) at 10 uM incubated overnight by thioflavin S based fluorescence analysis relative to control
[7] = Antioxidant activity assessed as free radical scavenging activity at 500 uM incubated for 30 mins under dark condition by DPPH assay; assay type: functional
[8] = Metal chelating activity assessed as compound-Zn2+ complex formation at 3 mM in presence of ZnCl2 by UV-Vis spectra analysis
Beta-secretase 1 [9] = biological target: T2, Beta-secretase 1 (Homo sapiens, UniProt P56817); assay: Inhibition of human recombinant BACE-1 expressed in Escherichia coli at 10 uM using panvera peptide as a substrate incubated for 1 hr by fluorescence analysis relative to control
Acetylcholinesterase [10] = biological target: T3, Acetylcholinesterase (Homo sapiens, UniProt P22303); assay: Potency index, ratio of rhein-huprine hybrid IC50 to test compound IC50 for inhibition of human recombinant AChE using acetylthiocholine iodide as a substrate preincubated for 20 mins followed by substrate addition by spectrophotometric analysis
Acetylcholinesterase [11] = biological target: T3, Acetylcholinesterase
Description: Inhibition of human recombinant AChE using acetylthiocholine iodide as a substrate preincubated for 20 mins followed by substrate addition by spectrophotometric analysis

[12] = Kinetic solubility of the compound in DMSO/PBS buffer measured after 2 hrs by nephalometric analysis; assay type: physicochemical; conditions: for solubility kinetic at 2 h: DMSO/PBS buffer, read-out: Kinetic_solubility
[13] = Neurotoxicity in mouse HT-22 cells assessed as decrease in cell viability at up to 25 uM by MTT assay; assay type: cell-based
[14] = Acute toxicity in zebra fish embryos assessed as lethality measured every 24 hrs for 72 hrs; design: species or system Danio rerio; conditions: zebrafish
Cholinesterase [15] = biological target: T1, Cholinesterase; assay: Potency index, ratio of huprine-Y IC50 to test compound IC50 for inhibition of human serum BChE using butyrylthiocholine iodide as a substrate preincubated for 20 mins followed by substrate addition by spectrophotometric analysis; assay type: cell-free
[16] = biological target: Amyloid-beta precursor protein (Homo sapiens) (UniProt P05067); assay: Inhibition of amyloid beta (1 to 42) (unknown origin) aggregation in Escherichia coli BL21 (DE3) at 10 uM incubated overnight by thioflavin S based fluorescence analysis relative to control
Acetylcholinesterase [17] = biological target: T3, Acetylcholinesterase; assay: Potency index, ratio of donepezil IC50 to test compound IC50 for inhibition of human recombinant AChE using acetylthiocholine iodide as a substrate preincubated for 20 mins followed by substrate addition by spectrophotometric analysis
Cholinesterase [18] = biological target: T1, Cholinesterase; assay: Potency index, ratio of donepezil IC50 to test compound IC50 for inhibition of human serum BChE using butyrylthiocholine iodide as a substrate preincubated for 20 mins followed by substrate addition by spectrophotometric analysis; assay type: cell-free
[19] = Metal chelating activity assessed as compound-Cu2+ complex formation at ratio of 5:1 by pyrocatechol violet assay; conditions: dose 3.0 mM
[20] = Metal chelating activity assessed as compound-Cu2+ complex formation at ratio of 2:1 by pyrocatechol violet assay; conditions: dose 3.0 mM
[21] = Metal chelating activity assessed as compound-Cu2+ complex formation at ratio of 0.5:1 by pyrocatechol violet assay; conditions: dose 3.0 mM
[22] = Metal chelating activity assessed as compound-Fe2+ complex formation at 3 mM in presence of FeCl2 by UV-Vis spectra analysis
[23] = Metal chelating activity assessed as compound-Cu2+ complex formation at ratio of 1:1 by pyrocatechol violet assay; conditions: dose 3.0 mM
[24] = Antioxidant activity assessed as free radical scavenging activity incubated for 30 mins under dark condition by DPPH assay; assay type: functional
HT-22 [25] = assay: Neuroprotective activity against glutamate induced neuronal death in mouse HT-22 cells assessed as increase in cell viability at 25 uM by MTT assay; assay type: functional, cell-based
[26] = Acute toxicity in zebra fish embryos assessed as lethality at 12.5 to 100 uM measured every 24 hrs for 72 hrs relative to control; design: species or system Danio rerio; conditions: zebrafish, dose 12.5-100 µM, read-out: Activity
[27] = Neurotoxicity in mouse HT-22 cells assessed as decrease in cell viability at up to 10 uM by MTT assay; assay type: cell-based
Beta-secretase 1 [28] = biological target: T2, Beta-secretase 1; assay: Inhibition of human recombinant BACE-1 expressed in Escherichia coli using panvera peptide as a substrate incubated for 1 hr by fluorescence analysis
HT-22 [29] = assay: Neuroprotective activity against glutamate induced neuronal death in mouse HT-22 cells assessed as increase in cell viability by MTT assay; assay type: functional, cell-based; conditions: dose 1-25 µM

Chain of Microtubule-associated protein tau (Homo sapiens) (P10636 whole entry): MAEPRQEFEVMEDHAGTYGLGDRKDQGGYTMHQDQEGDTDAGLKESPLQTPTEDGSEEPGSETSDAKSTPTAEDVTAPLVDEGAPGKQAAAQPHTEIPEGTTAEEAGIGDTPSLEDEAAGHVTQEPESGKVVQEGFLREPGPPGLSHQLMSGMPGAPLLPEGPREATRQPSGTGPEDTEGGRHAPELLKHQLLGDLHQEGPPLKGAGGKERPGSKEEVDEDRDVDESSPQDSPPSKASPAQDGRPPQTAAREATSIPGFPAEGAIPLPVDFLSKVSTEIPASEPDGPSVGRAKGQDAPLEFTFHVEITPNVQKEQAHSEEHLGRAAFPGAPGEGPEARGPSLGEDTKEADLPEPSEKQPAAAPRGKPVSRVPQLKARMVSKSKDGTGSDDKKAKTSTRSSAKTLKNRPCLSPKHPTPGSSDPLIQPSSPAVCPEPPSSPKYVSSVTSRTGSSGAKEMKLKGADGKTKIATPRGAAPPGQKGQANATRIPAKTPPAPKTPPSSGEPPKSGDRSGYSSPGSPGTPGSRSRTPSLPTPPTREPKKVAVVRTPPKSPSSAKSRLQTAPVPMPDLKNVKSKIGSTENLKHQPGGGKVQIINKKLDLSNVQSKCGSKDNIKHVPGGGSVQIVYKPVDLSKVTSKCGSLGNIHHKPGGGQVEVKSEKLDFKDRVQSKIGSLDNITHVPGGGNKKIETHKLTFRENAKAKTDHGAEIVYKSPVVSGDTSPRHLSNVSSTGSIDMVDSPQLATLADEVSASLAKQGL
Chain of Amyloid-beta precursor protein (Homo sapiens) (P05067 whole entry): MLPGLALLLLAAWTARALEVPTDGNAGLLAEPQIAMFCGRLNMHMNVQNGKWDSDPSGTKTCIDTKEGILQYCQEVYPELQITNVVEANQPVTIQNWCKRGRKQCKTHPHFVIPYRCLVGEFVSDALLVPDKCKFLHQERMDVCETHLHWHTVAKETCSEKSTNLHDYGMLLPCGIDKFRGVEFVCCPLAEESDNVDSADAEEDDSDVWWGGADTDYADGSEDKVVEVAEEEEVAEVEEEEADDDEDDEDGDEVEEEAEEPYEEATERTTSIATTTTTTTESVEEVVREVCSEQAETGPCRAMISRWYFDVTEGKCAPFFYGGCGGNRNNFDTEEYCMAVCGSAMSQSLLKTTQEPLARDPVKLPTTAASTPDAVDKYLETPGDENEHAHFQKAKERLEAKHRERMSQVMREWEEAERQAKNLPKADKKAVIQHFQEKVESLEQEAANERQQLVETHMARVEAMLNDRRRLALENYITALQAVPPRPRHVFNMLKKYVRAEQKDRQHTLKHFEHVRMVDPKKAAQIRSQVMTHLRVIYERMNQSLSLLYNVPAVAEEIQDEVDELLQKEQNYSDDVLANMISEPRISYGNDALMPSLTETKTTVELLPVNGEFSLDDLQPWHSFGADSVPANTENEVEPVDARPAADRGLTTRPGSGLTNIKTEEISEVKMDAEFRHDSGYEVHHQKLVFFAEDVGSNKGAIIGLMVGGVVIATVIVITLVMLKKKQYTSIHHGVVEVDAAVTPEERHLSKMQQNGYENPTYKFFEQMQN
T3 sequence (P22303 whole entry): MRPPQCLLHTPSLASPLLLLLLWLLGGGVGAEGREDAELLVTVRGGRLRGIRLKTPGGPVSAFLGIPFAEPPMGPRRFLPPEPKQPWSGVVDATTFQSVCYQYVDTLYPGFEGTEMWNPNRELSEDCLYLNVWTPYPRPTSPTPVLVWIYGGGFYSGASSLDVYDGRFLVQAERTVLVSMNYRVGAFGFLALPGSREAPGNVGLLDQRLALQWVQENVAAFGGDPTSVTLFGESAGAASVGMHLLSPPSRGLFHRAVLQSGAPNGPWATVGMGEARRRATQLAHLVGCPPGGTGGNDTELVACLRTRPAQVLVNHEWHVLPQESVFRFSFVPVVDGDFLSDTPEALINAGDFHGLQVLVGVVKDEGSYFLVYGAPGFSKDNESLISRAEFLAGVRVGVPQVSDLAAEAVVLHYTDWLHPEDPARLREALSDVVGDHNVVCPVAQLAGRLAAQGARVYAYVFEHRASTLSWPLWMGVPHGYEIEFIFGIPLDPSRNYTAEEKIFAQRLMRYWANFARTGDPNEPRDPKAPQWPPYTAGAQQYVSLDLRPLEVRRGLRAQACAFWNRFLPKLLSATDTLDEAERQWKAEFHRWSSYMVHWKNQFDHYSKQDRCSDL
T2 sequence (P56817 whole entry): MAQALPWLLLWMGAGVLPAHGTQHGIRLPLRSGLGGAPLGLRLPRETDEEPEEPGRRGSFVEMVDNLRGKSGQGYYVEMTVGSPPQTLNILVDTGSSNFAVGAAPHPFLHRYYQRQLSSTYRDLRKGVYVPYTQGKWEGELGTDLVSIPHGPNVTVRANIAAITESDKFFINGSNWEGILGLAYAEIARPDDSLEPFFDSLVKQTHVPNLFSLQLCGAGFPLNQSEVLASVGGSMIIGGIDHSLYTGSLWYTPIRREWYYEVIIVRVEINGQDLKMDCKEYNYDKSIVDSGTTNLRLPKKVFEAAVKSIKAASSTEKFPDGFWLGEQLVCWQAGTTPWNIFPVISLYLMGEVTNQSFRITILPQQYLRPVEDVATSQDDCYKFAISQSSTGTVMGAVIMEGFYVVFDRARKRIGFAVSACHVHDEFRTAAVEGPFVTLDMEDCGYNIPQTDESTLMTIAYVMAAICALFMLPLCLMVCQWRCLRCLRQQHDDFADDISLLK
T1 sequence (P06276 whole entry): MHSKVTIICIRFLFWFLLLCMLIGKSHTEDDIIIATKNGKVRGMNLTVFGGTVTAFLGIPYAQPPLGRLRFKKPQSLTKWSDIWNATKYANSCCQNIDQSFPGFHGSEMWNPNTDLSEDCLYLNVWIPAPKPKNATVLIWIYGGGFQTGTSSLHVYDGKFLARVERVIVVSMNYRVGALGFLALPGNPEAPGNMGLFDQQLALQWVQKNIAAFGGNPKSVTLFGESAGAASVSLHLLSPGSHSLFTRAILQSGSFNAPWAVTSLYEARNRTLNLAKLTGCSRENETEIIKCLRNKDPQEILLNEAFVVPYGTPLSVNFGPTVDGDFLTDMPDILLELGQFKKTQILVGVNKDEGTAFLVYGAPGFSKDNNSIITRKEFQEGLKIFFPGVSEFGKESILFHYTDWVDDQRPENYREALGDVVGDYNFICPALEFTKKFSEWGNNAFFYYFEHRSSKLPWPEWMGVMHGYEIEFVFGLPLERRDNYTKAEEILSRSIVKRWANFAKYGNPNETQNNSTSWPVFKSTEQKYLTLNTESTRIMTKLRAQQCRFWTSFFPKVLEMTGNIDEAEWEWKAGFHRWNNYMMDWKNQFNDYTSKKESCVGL

| SMILES | IC50 (Cholinesterase [3]) | Ratio IC50 (Cholinesterase [4]) | Papp [5] | inhibition [6] | Activity [7] | inhibition (Beta-secretase 1 [9]) | Ratio IC50 (Acetylcholinesterase [10]) | IC50 (Acetylcholinesterase [11]) | solubility kinetic at 2 h [12] | Activity [13] | LC50 at 72 h [14] | Ratio IC50 (Cholinesterase [15]) | inhibition [16] | Ratio IC50 (Acetylcholinesterase [17]) | Ratio IC50 (Cholinesterase [18]) | further results |
| --- | --- | --- | --- | --- | --- | --- | --- | --- | --- | --- | --- | --- | --- | --- | --- | --- |
| CC1=CC2Cc3nc4cc(Cl)ccc4c(NCCCCCCCCCNC(=O)c4ccc[nH]c4=O)c3C(C1)C2 (configuration not stated) | 31.9 nM | 7 | 6.7 ×10⁻⁶ cm/s | 48.5% | inactive | 6.92% | < 9 | 1.82 nM | 7.7 µg/mL (≈ 14.1 µM) | Non-Toxic | 57800 nM | 2 | 42.3% | < 65 | 79 | Activity (HT-22 [1]): inactive; Activity [2]: Active; Activity [8]: Active |
| O=C(O)CN(CCN(CC(=O)O)CC(=O)O)CC(=O)O | – | – | – | – | – | – | – | – | – | – | – | – | – | – | – | Activity [19]: Active; Activity [20]: Active; Activity [21]: Active; Activity [22]: Active; Activity [23]: Active |
| CC1=CC2Cc3nc4cc(Cl)ccc4c(NCCCCCCCCC(=O)N4CCNC(=O)C4)c3C(C1)C2 (configuration not stated) | 74.8 nM | 7 | 4.9 ×10⁻⁶ cm/s | 15% | inactive | inactive | < 9 | 0.41 nM | 43.3 µg/mL (≈ 82.8 µM) | Non-Toxic | > 100000 nM | 2 | 9.7% | < 65 | 79 | – |
| CC1=CC2Cc3nc4cc(Cl)ccc4c(NCCCCCCCCC(=O)NCc4cc[nH]c(=O)c4)c3C(C1)C2 (configuration not stated) | 75.8 nM | 7 | 4.4 ×10⁻⁶ cm/s | 20.9% | – | inactive | < 9 | 0.63 nM | 13.8 µg/mL (≈ 25.2 µM) | Non-Toxic | > 100000 nM | 2 | 19.9% | < 65 | 79 | EC50 [24]: 90600 nM |
| CC[N+](C)(CC)CCC[n+]1c(-c2ccccc2)c2cc(N)ccc2c2ccc(N)cc21 | – | – | – | – | – | – | – | – | – | – | – | – | 39.2% | – | – | – |
| CC1=CC2Cc3nc4cc(Cl)ccc4c(NCCCCCCCCCNC(=O)c4cc(O)c5c(c4)C(=O)c4cccc(O)c4C5=O)c3C(C1)C2 (configuration not stated) | – | – | – | 29.6% | – | – | – | – | – | – | – | – | 47.9% | – | – | Kinetic_solubility ([12]; 2 h): 19.7 uM and 14.8 ug ml-1 |
| CC1=CC2Cc3nc4cc(Cl)ccc4c(N)c3C(C1)C2 (racemic) [HUPRINE Y] | – | – | – | – | – | – | – | – | – | – | 20900 nM | – | – | – | – | – |
| O=C1O[C@H]([C@@H](O)CO)C(O)=C1O [ASCORBIC ACID] | – | – | – | – | – | – | – | – | – | – | – | – | – | – | – | EC50 [24]: 11800 nM |
| O=c1c(O)c(-c2ccc(O)c(O)c2)oc2cc(O)cc(O)c12 | – | – | – | – | – | – | – | – | – | – | – | – | – | – | – | Activity (HT-22 [25]): Active |
| COc1cc(CNC(=O)CCCCCCCCNc2c3c(nc4cc(Cl)ccc24)CC2C=C(C)CC3C2)ccn1 (configuration not stated) | 88.5 nM | 7 | 8.2 ×10⁻⁶ cm/s | 41.6% | inactive | 26.5% | < 9 | 1.25 nM | 5.1 µg/mL (≈ 9.09 µM) | Non-Toxic | 7100 nM | 2 | 29.4% | < 65 | 79 | mortality at 24 h, 100 µM [26]: 75% |
| CC1=CC2Cc3nc4cc(Cl)ccc4c(NCCCCCCCCCNS(=O)(=O)c4cn[nH]c4)c3C(C1)C2 (configuration not stated) | 50.3 nM | 7 | 6.3 ×10⁻⁶ cm/s | 55.5% | inactive | – | < 9 | 2.4 nM | 5.7 µg/mL (≈ 10.2 µM) | – | > 100000 nM | 2 | 35.3% | < 65 | 79 | Activity (HT-22 [1]): inactive; Activity [2]: Active; Activity [19]: Active; Activity [27]: Toxic; Activity [20]: Active; Activity [21]: Active; Activity [8]: Active; Activity [22]: Active; IC50 (Beta-secretase 1 [28]): 10800 nM; Activity [23]: Active |
| CC1=CC2Cc3nc4cc(Cl)ccc4c(NCCCCCCCCC(=O)Nc4cn[nH]c4)c3C(C1)C2 (configuration not stated) | 64 nM | 7 | 5.9 ×10⁻⁶ cm/s | 45.3% | – | 16.2% | < 9 | 2.39 nM | 9.3 µg/mL (≈ 18.4 µM) | Non-Toxic | 69100 nM | 2 | 32.6% | < 65 | 79 | Activity [2]: Active; Activity [19]: Active; Activity (HT-22 [29]): Dose-Dependent Effect; Activity [20]: Active; Activity [21]: Active; Activity [8]: Active; Activity [22]: Active; Activity [23]: Active; EC50 [24]: 19600 nM |
